Assay results taken from article PMC6333442, “Conserved allosteric pathways for activation of TRPV3 revealed through engineering vanilloid-sensitivity” (eLife, 2019).

Experiments:
[1] = tested on: TRPV3-6M/V2P (pore domain of rat TRPV2 in TRPV3-6M); test: Two-electrode voltage clamp, TRPV3-6M/V2P chimera in oocytes; assay type: cell-based, mouse; details: RR 50 µM
Description: All channel constructs were expressed in Xenopus laevis oocytes and studied using the two-electrode voltage clamp technique (TEVC) following 1–4 days of incubation after cRNA injection. The animal care and experimental procedures were performed in accordance with the Guide for the Care and Use of Laboratory Animals and were approved by the Animal Care and Use Committee of the National Institute of Neurological Disorders and Stroke (Animal protocol number 1253–17). Oocytes were removed surgically and incubated with agitation for 1 hr in a solution containing (in mM) 82.5 NaCl, 2.5 KCl, 1 MgCl2, 5 HEPES, pH 7.6 (with NaOH), and collagenase (2 mg/ml; Worthington Biochemical, Lakewood, NJ). Defolliculated oocytes were injected with cRNA for each of the constructs and incubated at 17°C in a solution containing (in mM) 96 NaCl, 2 KCl, 1 MgCl2, 1.8 CaCl2, 5 HEPES, pH 7.6 (with NaOH), and gentamicin (50 μg/ml, GIBCO-BRL, Gaithersburg, MD). Oocyte membrane voltage was controlled using an OC-725C oocyte clamp (Warner Instruments, Hamden, CT). Data were filtered at 1–3 kHz and digitized at 20 kHz using pClamp software (Molecular Devices, Sunnyvale, CA) and a Digidata 1440A digitizer (Axon Instruments). Microelectrode resistances were 0.1–1 MΩ when filled with 3 M KCl. For recording TRP channel currents, the external recording solution contained (in mM) 100 KCl, 10 HEPES, pH 7.6 (with KOH). […]
For temperature-activation experiments, calcium-activated chloride currents were minimized by using calcium-free solution containing 30 µM Caccinh-A01 and recording at negative membrane voltages. Heat stimuli were achieved by passing the external recording solution through glass capillary spirals immersed in a water bath maintained at about 70°C, and recordings were performed during constant perfusion with temperature measured using a thermistor (TA-29, Warner Instruments) located close to the cell. […] The mean I vs T relations were calculated by automatically binning each of the recordings in temperature intervals of 2°C, and averaging a single data point within each interval per cell. […]

TRPV3-6M + 5PM = molecular target: T1, TRPV3-6M + 5PM (Mus musculus, UniProt Q8K424, A560T/A606V/F522S/F625L/F656I/F666Y/H523E/L557M/Q580E/V587L/W521Y); test: Two-electrode voltage clamp, TRPV3-6M + 5PM in oocytes; assay type: cell-based; details: capsaicin 20 μM, ±60 mV
T1 construct: expressed in transfected cells; host or cells: Xenopus laevis oocytes
T1 sequence (Q8K424 1-791 W521Y/F522S/H523E/L557M/A560T/Q580E/V587L/A606V/F625L/F656I/F666Y): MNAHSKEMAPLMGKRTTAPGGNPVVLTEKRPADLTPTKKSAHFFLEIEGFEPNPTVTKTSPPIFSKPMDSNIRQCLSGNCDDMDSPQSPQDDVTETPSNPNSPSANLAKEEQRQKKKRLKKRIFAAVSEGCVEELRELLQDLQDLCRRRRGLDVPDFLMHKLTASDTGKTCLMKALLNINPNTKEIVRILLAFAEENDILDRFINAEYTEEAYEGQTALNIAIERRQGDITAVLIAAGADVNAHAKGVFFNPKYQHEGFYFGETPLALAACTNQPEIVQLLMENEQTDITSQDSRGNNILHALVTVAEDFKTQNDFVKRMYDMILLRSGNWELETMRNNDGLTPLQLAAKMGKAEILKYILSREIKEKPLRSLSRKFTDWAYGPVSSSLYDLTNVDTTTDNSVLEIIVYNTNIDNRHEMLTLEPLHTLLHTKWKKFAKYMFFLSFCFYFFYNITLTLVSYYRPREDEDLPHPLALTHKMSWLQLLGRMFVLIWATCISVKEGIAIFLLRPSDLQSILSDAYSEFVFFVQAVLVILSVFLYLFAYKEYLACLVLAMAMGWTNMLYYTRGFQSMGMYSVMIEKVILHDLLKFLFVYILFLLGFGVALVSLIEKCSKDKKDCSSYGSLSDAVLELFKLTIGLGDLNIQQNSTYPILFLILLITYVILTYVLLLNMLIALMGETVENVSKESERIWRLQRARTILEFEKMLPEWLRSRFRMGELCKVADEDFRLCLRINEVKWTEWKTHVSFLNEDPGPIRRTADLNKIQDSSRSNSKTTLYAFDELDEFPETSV
Description: All channel constructs were expressed in Xenopus laevis oocytes and studied using the two-electrode voltage clamp technique (TEVC) following 1–4 days of incubation after cRNA injection. The animal care and experimental procedures were performed in accordance with the Guide for the Care and Use of Laboratory Animals and were approved by the Animal Care and Use Committee of the National Institute of Neurological Disorders and Stroke (Animal protocol number 1253–17). Oocytes were removed surgically and incubated with agitation for 1 hr in a solution containing (in mM) 82.5 NaCl, 2.5 KCl, 1 MgCl2, 5 HEPES, pH 7.6 (with NaOH), and collagenase (2 mg/ml; Worthington Biochemical, Lakewood, NJ). Defolliculated oocytes were injected with cRNA for each of the constructs and incubated at 17°C in a solution containing (in mM) 96 NaCl, 2 KCl, 1 MgCl2, 1.8 CaCl2, 5 HEPES, pH 7.6 (with NaOH), and gentamicin (50 μg/ml, GIBCO-BRL, Gaithersburg, MD). Oocyte membrane voltage was controlled using an OC-725C oocyte clamp (Warner Instruments, Hamden, CT). Data were filtered at 1–3 kHz and digitized at 20 kHz using pClamp software (Molecular Devices, Sunnyvale, CA) and a Digidata 1440A digitizer (Axon Instruments). Microelectrode resistances were 0.1–1 MΩ when filled with 3 M KCl. For recording TRP channel currents, the external recording solution contained (in mM) 100 KCl, 10 HEPES, pH 7.6 (with KOH). Experiments were performed at room temperature (~22°C), except as indicated otherwise. […] Current time courses were obtained by stepping membrane voltage every 2 s from a holding potential of 0 mV to either −60 or +60 mV for 100 ms, and plotting the mean steady-state current at the end of each voltage step as a function of total recording time. I-V relations were obtained similarly, but voltage was stepped every 2 s to a different value, in 10 mV increments and starting at −60 mV.

SMILES: N.N.N.N.N.N.N.N.N.N.N.N.N.N.[Cl-].[Cl-].[Cl-].[Cl-].[Cl-].[Cl-].[O-2].[O-2].[Ru+3].[Ru+3].[Ru+4] [RR, ruthenium red]
- block of RTx-activated current [1]: readily blocked

SMILES: COc1cc(CNC(=O)CCCC/C=C/C(C)C)ccc1O [capsaicin]
- channel activation (current response) (TRPV3-6M + 5PM): cannot be activated
